# Measurements as given in patent publication US12343352B2, “N-(phenylsulfonyl)benzamides and related compounds as Bcl-2 inhibitors” (ASCENTAGE PHARMA (SUZHOU) CO., LTD., priority 2019, dated 2025).
# How the values were obtained:
# [1] = Metabolites in human plasma; assay type: in vivo
# [2] = Mouse liver microsome assay / metabolites in mouse plasma; assay type: in vitro ADME
# Experimental: (§1) Metabolism studies of Compound 1 and Compound Z were evaluated in both mouse and dog liver microsome assays.
# [3] = Dog liver microsome assay / metabolites in dog plasma; assay type: in vitro ADME
# Experimental: as §1
# [4] = tested on: CYP enzymes; test: Comparative metabolism studies: metabolizing CYP enzymes and CYP inhibition/induction (liver microsome assays); assay type: in vitro ADME
# Experimental: as §1
# [5] = Steady state pharmacokinetics in patients following multiple oral doses; assay type: in vivo; settings: human, plasma, multiple oral doses of 400 mg once daily; for AUC(0-t): read-out: AUC(0-24 h); for half-life: read-out: T½ (converted)
# [6] = Pharmacokinetic properties of Compound 1 compared with Compound Z (systemic exposure and tumor tissues); assay type: in vivo; settings: versus Compound Z
SMILES,major metabolite (>10%) in human plasma [1],other metabolites found in mouse plasma ([2]; mouse plasma),metabolites found in dog plasma [3],mainly metabolized by (CYP enzymes) ([4]; mouse and dog liver microsome assays),Cmax [5] [ng/mL],Tmax [5] [h],AUC(0-t) [5] [ng·h/mL],half-life [5] [min],Cmax in systemic exposure relative to Compound Z ([6]; systemic exposure),half-life in systemic exposure relative to Compound Z ([6]; systemic exposure),Cmax in tumor tissues relative to Compound Z ([6]; tumor tissues),half-life in tumor tissues relative to Compound Z ([6]; tumor tissues),major metabolite (>10%) in mouse plasma ([2]; mouse liver microsome assay),inhibition or induction of major CYP enzymes [4],"mainly metabolized by (CYP enzymes) ([4]; mouse, dog, microsomes)"
"CC1(C)CCC(CN2CCN(c3ccc(C(=O)NS(=O)(=O)c4ccc(NCC5CCOCC5)c([N+](=O)[O-])c4)c(Oc4cnc5[nH]ccc5c4)c3)CC2)=C(c2ccc(Cl)cc2)C1 [Compound Z, Venetoclax, reference compound]",oxidative metabolite M27,minor oxidation metabolites,minor oxidation metabolites,CYP3A4 and CYP3A5,2180,7,35500,1560,–,–,–,–,–,–,–
"O=C(NS(=O)(=O)c1ccc(NC[C@H]2COCCO2)c([N+](=O)[O-])c1)c1ccc(N2CCN(CC3=C(c4ccc(Cl)cc4)CC4(CCC4)CC3)CC2)cc1Oc1cnc2[nH]ccc2c1 [Compound 1, (S)-N-((4-(((1,4-dioxan-2-yl)methyl)amino)-3-nitrophenyl)sulfonyl)-2-((1H-pyrrolo[2,3-b]pyridin-5-yl)oxy)-4-(4-((6-(4-chlorophenyl)spiro[3.5]non-6-en-7-yl)methyl)piperazin-1-yl)benzamide]",–,–,minor oxidation metabolites,–,970,6,9960,266,higher,shorter,higher,similar,amide bond hydrolysis M2,not found to inhibit or induce any major CYP enzymes,CYP3A4 and CYP2C8
